Data set [1] has as its system Abeta total produced and secreted by human neuroblastoma SKNBE2 cells expressing hAPP695. Description: Cellular αLisa assay in SKNBE2 cells, Abeta total. In kind it is cell-based. To be noted: incubated for 18 hours, read-out: Cellular αLisa assay in SKNBE2 cells Abetatotal pIC50 (converted). The procedure: (§1) In two αLisa assays the levels of Abeta total and Abeta 1-42 produced and secreted into the medium of human neuroblastoma SKNBE2 cells are quantified. The assay is based on the human neuroblastoma SKNBE2 expressing the wild type Amyloid Precursor Protein (hAPP695). The compounds are diluted and added to these cells, incubated for 18 hours and then measurements of Abeta 1-42 and Abeta total are taken. Abeta total and Abeta 1-42 are measured by sandwich αLisa. αLisa is a sandwich assay using biotinylated antibody AbN/25 attached to streptavidin coated beads and antibody Ab4G8 or cAb42/26 conjugated acceptor beads for the detection of Abeta total and Abeta 1-42 respectively. In the presence of Abeta total or Abeta 1-42, the beads come into close proximity. The excitation of the donor beads provokes the release of singlet oxygen molecules that trigger a cascade of energy transfer in the acceptor beads, resulting in light emission. Light emission is measured after 1 hour incubation (excitation at […] and emission at 615 nm).
(§2) A best-fit curve is fitted by a minimum sum of squares method to the plot of % Controlmin versus compound concentration. From this an IC50 value (inhibitory concentration causing 50% inhibition of activity) can be obtained.

Data set [2] relates to Abeta 1-42 produced and secreted by human neuroblastoma SKNBE2 cells expressing hAPP695. Kind of data set: Cellular αLisa assay in SKNBE2 cells, Abeta 42. The data set is classed as cell-based. The conditions noted are these: incubated for 18 hours, read-out: Cellular αLisa assay in SKNBE2 cells Abeta 42 pIC50 (converted). On the procedure: as §1, §2
Data set [3] addresses recombinant BACE1 protein (Homo sapiens, UniProt P56817). Description: Biochemical FRET based assay. To be noted: recombinant BACE1 1 μg/ml, 120 minutes, room temperature, pH 5.0; read-out: Biochemical FRET based assay pIC50 (converted). An excerpt: This assay is a Fluorescence Resonance Energy Transfer Assay (FRET) based assay. The substrate for this assay is an APP derived 13 amino acids peptide that contains the ‘Swedish’ Lys-Met/Asn-Leu mutation of the amyloid precursor protein (APP) beta-secretase cleavage site. This substrate also contains two fluorophores: (7-methoxycoumarin-4-yl) acetic acid (Mca) is a fluorescent donor with excitation wavelength at 320 nm and emission at 405 nm and 2,4-Dinitrophenyl (Dnp) is a proprietary quencher acceptor. […] Upon cleavage by BACE1, the fluorophore Mca is separated from the quenching group Dnp, restoring the full fluorescence yield of the donor. The increase in fluorescence is linearly related to the rate of proteolysis.
Briefly in a 384-well format recombinant BACE1 protein in a final concentration of 1 μg/ml is incubated for 120 minutes at room temperature with 10 μm substrate in incubation buffer (40 mM Citrate buffer pH 5.0, 0.04% PEG, 4% DMSO) in the absence or presence of compound. Next the amount of proteolysis is directly measured by fluorescence measurement at T=0 and T=120 (excitation at 320 nm and emission at 405 nm). Results are expressed in RFU (Relative Fluorescence Units), as difference between T120 and T0.
From this an IC50 value (inhibitory concentration causing 50% inhibition of activity) can be obtained.

Data set [4] concerns Aβ42 in the soluble fraction of brain homogenates. Kind of data set: In vivo efficacy: brain soluble Aβ42 lowering (ELISA). More on the design: species or system mouse. To be noted: p.o., non-transgenic animals. An excerpt: (§3) To determine whether acute administration of an Aβ42 peptide lowering agent would reduce Aβ peptide levels in vivo, non-transgenic rodents, e.g. mice or rats were used. Animals treated with the Aβ peptide lowering agent were examined and compared to those untreated or treated with vehicle and brain levels of soluble Aβ42 and total Aβ were quantitated by standard techniques, for example, using ELISA. Treatment periods varied from hours (h) to days and were adjusted based on the results of the Aβ42 lowering once a time course of onset of effect could be established.
(§4) A typical protocol for measuring Aβ42 lowering in vivo is shown but it is only one of many variations that could be used to optimize the levels of detectable Aβ. For example, Aβ peptide lowering compounds were formulated in 20% hydroxypropyl β cyclodextrin. The Aβ peptide lowering agents were administered as a single oral dose (p.o.) or a single subcutaneous dose (s.c.) to overnight fasted animals. After a certain time, usually 2 or 4 h (as indicated in Table 7), the animals were sacrificed and A1342 levels were analysed.
(§5) Blood was collected by decapitation and exsanguinations in EDTA-treated collection tubes. […] The left hemisphere was stored at −18° C. for quantitative analysis of test compound levels. […]
(§6) Mouse brains from non-transgenic animals were resuspended in 8 volumes of 0.4% DEA (diethylamine)/50 mM NaCl containing protease inhibitors (Roche-11873580001 or 04693159001) per gram of tissue, e.g. for 0.158 g brain, add 1.264 ml of 0.4% DEA. […] Nine parts of supernatant were neutralized with 1 part 0.5 M Tris-HCl pH 6.8 and used to quantify Aβtotal and Aβ42.
To quantify the amount of Aβtotal and Aβ42 in the soluble fraction of the brain homogenates, Enzyme-Linked-Immunosorbent-Assays were used. […] Following this incubation and subsequent wash steps the ELISA for Aβ42 quantification was finished by addition of Quanta Blu fluorogenic peroxidase substrate according to the manufacturer's instructions (Pierce Corp., Rockford, Ill.). A reading was performed after 10 to 15 min (excitation 320 nm/emission 420 nm).
On the technique in general: In an ELISA, binding on a coated surface is turned into a signal by an enzyme label.

Data set [5] has as its system Aβtotal in the soluble fraction of brain homogenates. Kind of data set: In vivo efficacy: brain soluble Aβtotal lowering (ELISA). Also noted: species or system mouse. The conditions noted are these: p.o., non-transgenic animals.
Text: as §3, §4, §5, §6
To quantify the amount of Aβtotal and Aβ42 in the soluble fraction of the brain homogenates, Enzyme-Linked-Immunosorbent-Assays were used. […] Following this incubation and subsequent wash steps the ELISA for Aβ42 quantification was finished by addition of Quanta Blu fluorogenic peroxidase substrate according to the manufacturer's instructions (Pierce Corp., Rockford, Ill.). A reading was performed after 10 to 15 min (excitation 320 nm/emission 420 nm). […]

Where [6] appears, read: 10 mpk, 2 h after administration.
Setting [7] is: 30 mpk, 4 h after administration.

Broadly, the melting point is the temperature of the solid-liquid transition.

recombinant BACE1 protein, sequence (P56817 46-501): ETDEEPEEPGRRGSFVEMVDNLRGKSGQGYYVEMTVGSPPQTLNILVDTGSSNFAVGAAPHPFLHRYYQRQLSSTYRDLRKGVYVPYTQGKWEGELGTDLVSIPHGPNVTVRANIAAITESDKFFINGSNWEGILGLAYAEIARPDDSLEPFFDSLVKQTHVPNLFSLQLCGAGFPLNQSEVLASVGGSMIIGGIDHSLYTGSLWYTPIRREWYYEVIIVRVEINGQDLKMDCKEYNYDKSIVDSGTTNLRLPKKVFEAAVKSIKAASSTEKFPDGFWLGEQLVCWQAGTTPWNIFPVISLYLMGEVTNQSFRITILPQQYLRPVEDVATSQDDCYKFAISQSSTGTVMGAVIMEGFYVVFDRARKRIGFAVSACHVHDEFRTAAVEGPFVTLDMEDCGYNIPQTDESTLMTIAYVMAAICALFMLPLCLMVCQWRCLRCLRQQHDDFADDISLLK

As to `C[C@]1(c2cc(-c3cncnc3)ccc2F)N=C(N)COC1C(F)F` (single isomer, unassigned) [Compound 4, (5R,6R*)-6-(Difluoromethyl)-5-(2-fluoro-5-pyrimidin-5-ylphenyl)-5-methyl-5,6-dihydro-2H-1,4-oxazin-3-amine], the IC50 in data set [1] is 129 nM; in data set [2], 129 nM; in data set [3] it was 427 nM.
As for `C[C@]1(c2cc(NC(=O)c3ccc(F)cn3)ccc2F)N=C(N)COC1C(F)F` (single isomer, unassigned) [Compound 2, N-{3-[(2R*,3R)-5-Amino-2-(difluoromethyl)-3-methyl-3,6-dihydro-2H-1,4-oxazin-3-yl]-4-fluorophenyl}-5-fluoropyridine-2-carboxamide], the melting point is 205.7 °C. For the same compound, in data set [4] (setting [6]), the “Aβ42 (% Ctrl)_Mean” value worked out at 91 % Ctrl. The IC50 in data set [1] was 8.51 nM. Besides, the “Aβtotal (% Ctrl)_Mean” value in data set [5] (setting [6]) was 96 % Ctrl. Besides, in data set [2], the IC50 is 8.51 nM. In addition, in data set [3], the IC50 was 35.5 nM.
Take `CC1(c2cc(NC(=O)c3ccc(Cl)cn3)ccc2F)N=C(N)COC1C(F)F` (single isomer, unassigned) [Compound 6, N-{3-[(2R*3R)-5-Amino-2-(difluoromethyl)-3-methyl-3,6-dihydro-2H-1,4-oxazin-3-yl]-4-fluorophenyl}-5-chloropyridine-2-carboxamide]: the IC50 was 3.39 nM in data set [1] and 3.31 nM in data set [2].
Consider `C[C@]1(c2cccc(-c3cncnc3)c2)N=C(N)COC1C(F)F` (single isomer, unassigned) [Compound 5, (5R,6R*)-6-(Difluoromethyl)-5-methyl-5-(3-pyrimidin-5-ylphenyl)-5,6-dihydro-2H-1,4-oxazin-3-amine], for which the IC50 in data set [1] was 117 nM; in data set [2] it was 117 nM; in data set [3], 457 nM.
Consider `COc1cnc(C(=O)Nc2ccc(F)c([C@@]3(C)N=C(N)COC3C(F)F)c2)cn1` (single isomer, unassigned) [Compound 1, N-{3-[(2R*,3R)-5-Amino-2-(difluoromethyl)-3-methyl-3,6-dihydro-2H-1,4-oxazin-3-yl]-4-fluorophenyl}-5-methoxypyrazine-2-carboxamide], for which, in data set [4] (setting [6]), the “Aβ42 (% Ctrl)_Mean” value was found to be 62 % Ctrl. The figures for the IC50 in data set [1], in data set [2] and in data set [3] were 4.27 nM, 4.17 nM and 35.5 nM, respectively. Also, in data set [5] (setting [6]), the “Aβtotal (% Ctrl)_Mean” value was found to be 59 % Ctrl.
`C[C@]1(c2cc(NC(=O)c3ccc(C#N)cn3)ccc2F)N=C(N)COC1C(F)F` (single isomer, unassigned) [Compound 7, N-{3-[(2R*,3R)-5-Amino-2-(difluoromethyl)-3-methyl-3,6-dihydro-2H-1,4-oxazin-3-yl]-4-fluorophenyl}-5-cyanopyridine-2-carboxamide] came in with a melting point of 230.9 °C. For the same compound, the “Aβ42 (% Ctrl)_Mean” value in data set [4] (setting [7]) is reported as 53 % Ctrl. For the same compound, the IC50 in data set [1] is 3.09 nM. The “Aβtotal (% Ctrl)_Mean” value in data set [5] (setting [7]) was found to be 55 % Ctrl. The IC50 in data set [2] was 3.47 nM. Also, the IC50 in data set [3] was 53.7 nM.
As for `CCC1(c2cc(NC(=O)c3cnc(OC)cn3)ccc2F)N=C(N)COC1C(F)F` (racemic) [Compound 3, cis-rac-N-{3-[5-Amino-2-(difluoromethyl)-3-ethyl-3,6-dihydro-2H-1,4-oxazin-3-yl]-4-fluorophenyl}-5-methoxypyrazine-2-carboxamide], the results for the IC50 in data set [1], in data set [2] and in data set [3] were 3.72 nM, 4.17 nM and 63.1 nM, respectively.

The values are drawn from patent US20140343048A1, “6-DIFLUOROMETHYL-5,6-DIHYDRO-2H-[1,4]OXAZIN-3-AMINE DERIVATIVES” (Janssen Pharmacetuica NV, priority 2011, published 2014).
